Laboratory results taken from ChEMBL document CHEMBL1201861, “Genomics of Drug Sensitity in Cancer screening data, Wellcome Trust Sanger Institute”.

Legend:
Assay in all cases: cells
Type in all cases: functional, cell-based
Conditions in all cases: Homo sapiens
SK-MEL-30 = tested on: SK-MEL-30;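 note: growth inhibition of SK-MEL-30 cells, determined with a cell viability assay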
Description: SANGER: Inhibition of human SK-MEL-30 cell growth in a cell viability assay.

A2058 = tested on: A2058;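 note: reduction of A2058 cell growth, read out with a viability assay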
Description: SANGER: Inhibition of human A2058 cell growth in a cell viability assay.

MDA-MB-361 = tested on: MDA-MB-361
NCI-H630 = tested on: NCI-H630;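 note: growth inhibition of NCI-H630 cells, read out with a cell viability assay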
Description: SANGER: Inhibition of human NCI-H630 cell growth in a cell viability assay.

FaDu = tested on: FaDu;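 note: cell viability readout of growth inhibition in FaDu cells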
Description: SANGER: Inhibition of human FADU cell growth in a cell viability assay.

HSC-3 = tested on: HSC-3
Description: SANGER: Inhibition of human HSC-3 cell growth in a cell viability assay.

8305C = tested on: 8305C
Description: SANGER: Inhibition of human 8305C cell growth in a cell viability assay.

SW1783 = tested on: SW1783;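 note: cell growth inhibition measured with a viability assay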
Description: SANGER: Inhibition of human SW1783 cell growth in a cell viability assay.

SN12C = tested on: SN12C;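 note: growth inhibition of human SN12C cells, measured by a cell viability assay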
Description: SANGER: Inhibition of human SN12C cell growth in a cell viability assay.

BEN = tested on: BEN;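 note: growth inhibition of the BEN cell line, read out with a cell viability assay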
Description: SANGER: Inhibition of human BEN cell growth in a cell viability assay.

COLO-680N = tested on: COLO-680N;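 note: cell viability assay used to measure inhibition of COLO-680N cell growth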
Description: SANGER: Inhibition of human COLO-680N cell growth in a cell viability assay.

CAPAN-1 = tested on: CAPAN-1;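 note: growth suppression of CAPAN-1 cells, read out by a cell viability assay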
Description: SANGER: Inhibition of human CAPAN-1 cell growth in a cell viability assay.

UACC-893 = tested on: UACC-893
Description: SANGER: Inhibition of human UACC-893 cell growth in a cell viability assay.

SK-OV-3 = tested on: SK-OV-3;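 note: growth inhibition of SK-OV-3 human cells, read out with a cell viability assay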
Description: SANGER: Inhibition of human SK-OV-3 cell growth in a cell viability assay.

UMC-11 = tested on: UMC-11;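 note: growth inhibition of UMC-11 cells, read out with a cell viability assay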
Description: SANGER: Inhibition of human UMC-11 cell growth in a cell viability assay.

NB12 = tested on: NB12;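 note: growth inhibition of human NB12 cells, read out by a cell viability assay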
Description: SANGER: Inhibition of human NB12 cell growth in a cell viability assay.

NCI-H1793 = tested on: NCI-H1793;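 note: cell growth inhibition, read out by a cell viability assay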
Description: SANGER: Inhibition of human NCI-H1793 cell growth in a cell viability assay.

HCC1569 = tested on: HCC1569;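 note: growth inhibition of human HCC1569 cells, read out with a cell viability assay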
Description: SANGER: Inhibition of human HCC1569 cell growth in a cell viability assay.

SiHa = tested on: SiHa;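 note: Viability-based readout of growth inhibition in SiHa cells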
Description: SANGER: Inhibition of human SiHa cell growth in a cell viability assay.

SCC-4 = tested on: SCC-4;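 note: growth inhibition of human SCC-4 cells, read out as cell viability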
Description: SANGER: Inhibition of human SCC-4 cell growth in a cell viability assay.

SW1990 = tested on: SW1990;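 note: cell growth inhibition determined with a viability assay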
Description: SANGER: Inhibition of human SW1990 cell growth in a cell viability assay.

MFE-280 = tested on: MFE-280;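 note: growth inhibition of MFE-280 cells, determined with a cell viability readout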
Description: SANGER: Inhibition of human MFE-280 cell growth in a cell viability assay.

HCT-15 = tested on: HCT-15;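 note: cell viability readout, IC50 reflecting suppression of HCT-15 cell growth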
Description: SANGER: Inhibition of human HCT-15 cell growth in a cell viability assay.

BFTC-905 = tested on: BFTC-905
Description: SANGER: Inhibition of human BFTC-905 cell growth in a cell viability assay.

MDA-MB-415 = tested on: MDA-MB-415
NCI-H2170 = tested on: NCI-H2170;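 note: cell viability assay measuring growth inhibition of human NCI-H2170 cancer cells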
Description: SANGER: Inhibition of human NCI-H2170 cell growth in a cell viability assay.

SW1088 = tested on: SW1088;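 note: growth inhibition of human SW1088 cells, read out by a cell viability assay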
Description: SANGER: Inhibition of human SW1088 cell growth in a cell viability assay.

SF-295 = tested on: SF-295;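 note: growth inhibition of SF-295 cells, read out with a cell viability assay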
Description: SANGER: Inhibition of human SF295 cell growth in a cell viability assay.

D-392MG = tested on: D-392MG
639-V = tested on: 639-V;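 note: growth inhibition of 639-V cells, read out with a cell viability assay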
Description: SANGER: Inhibition of human 639-V cell growth in a cell viability assay.

VMRC-RCZ = tested on: VMRC-RCZ;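 note: growth inhibition measured with a cell viability assay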
Description: SANGER: Inhibition of human VMRC-RCZ cell growth in a cell viability assay.

D-247MG = tested on: D-247MG
Description: SANGER: Inhibition of human D-247MG cell growth in a cell viability assay.

HSC-2 = tested on: HSC-2;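 note: growth inhibition of human HSC-2 cells, read out by a cell viability assay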
Description: SANGER: Inhibition of human HSC-2 cell growth in a cell viability assay.

HO-1-N-1 = tested on: HO-1-N-1;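 note: growth inhibition of human HO-1-N-1 cells, read out with a cell viability assay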
Description: SANGER: Inhibition of human HO-1-N-1 cell growth in a cell viability assay.

NCI-H1623 = tested on: NCI-H1623;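 note: cell viability assay used as the read-out for growth inhibition of NCI-H1623 cells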
Description: SANGER: Inhibition of human NCI-H1623 cell growth in a cell viability assay.

G-401 = tested on: G-401
Description: SANGER: Inhibition of human G-401 cell growth in a cell viability assay.

SCC-9 = tested on: SCC-9;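 note: Read-out is a cell viability assay, with values giving inhibition of cell growth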
Description: SANGER: Inhibition of human SCC-9 cell growth in a cell viability assay.

ACHN = tested on: ACHN;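 note: cell viability read-out used to gauge how strongly growth of human ACHN cells is suppressed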
Description: SANGER: Inhibition of human ACHN cell growth in a cell viability assay.

CaR-1 = tested on: CaR-1;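 note: growth inhibition of human CaR-1 cancer cells, read out with a cell viability assay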
Description: SANGER: Inhibition of human CaR-1 cell growth in a cell viability assay.

SW948 = tested on: SW948;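 note: growth inhibition of SW948 cells, read out with a cell viability assay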
Description: SANGER: Inhibition of human SW948 cell growth in a cell viability assay.

Capan-2 = tested on: Capan-2;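 note: Capan-2 cell growth inhibition, read out with a viability assay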
Description: SANGER: Inhibition of human Capan-2 cell growth in a cell viability assay.

DoTc2-4510 = tested on: DoTc2-4510
U-118-MG = tested on: U-118-MG
Description: SANGER: Inhibition of human U-118-MG cell growth in a cell viability assay.

SK-N-AS = tested on: SK-N-AS;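 note: growth inhibition of human SK-N-AS cells, measured with a cell viability assay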
Description: SANGER: Inhibition of human SK-N-AS cell growth in a cell viability assay.

NCI-H358 = tested on: NCI-H358;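 note: growth inhibition of NCI-H358 human cells, read out with a cell viability assay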
Description: SANGER: Inhibition of human NCI-H358 cell growth in a cell viability assay.

Calu-3 = tested on: Calu-3;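 note: growth inhibition of human Calu-3 cells, determined with a cell viability assay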
Description: SANGER: Inhibition of human Calu-3 cell growth in a cell viability assay.

BT-20 = tested on: BT-20;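 note: cell viability assay measuring suppression of growth in human BT-20 cells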
Description: SANGER: Inhibition of human BT-20 cell growth in a cell viability assay.

NY = tested on: NY
Description: SANGER: Inhibition of human NY cell growth in a cell viability assay.

23132-87 = tested on: 23132-87
Description: SANGER: Inhibition of human 23132-87 cell growth in a cell viability assay.

NCI-H596 = tested on: NCI-H596;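 note: growth inhibition of NCI-H596 cells, read out with a cell viability assay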
Description: SANGER: Inhibition of human NCI-H596 cell growth in a cell viability assay.

5637 = tested on: 5637
Description: SANGER: Inhibition of human 5637 cell growth in a cell viability assay.

SW13 = tested on: SW13;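 note: IC50 is inhibition of SW13 cell growth, read out with a cell viability assay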
Description: SANGER: Inhibition of human SW13 cell growth in a cell viability assay.

NCI-H28 = tested on: NCI-H28;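 note: growth inhibition of human NCI-H28 cells, read out as cell viability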
Description: SANGER: Inhibition of human NCI-H28 cell growth in a cell viability assay.

769-P = tested on: 769-P
Description: SANGER: Inhibition of human 769-P cell growth in a cell viability assay.

HT-1376 = tested on: HT-1376
Description: SANGER: Inhibition of human HT-1376 cell growth in a cell viability assay.

Compound `C[C@]12O[C@H](C[C@]1(O)CO)n1c3ccccc3c3c4c(c5c6ccccc6n2c5c31)CNC4=O` [LESTAURTINIB] has an IC50 (SK-MEL-30) of 0.512 µM, an IC50 (A2058) of 0.245 µM and an IC50 (MDA-MB-361) of 1.25 µM. For the same compound, the IC50 (NCI-H630) was greater than 2 µM, the IC50 (FaDu) was 0.648 µM and the IC50 (HSC-3) was 0.0468 µM. For the same compound, the IC50 (8305C) was greater than 2 µM, the IC50 (SW1783) was 1.6 µM and the IC50 (SN12C) was 0.398 µM. The IC50 (BEN) was greater than 2 µM, the IC50 (COLO-680N) was greater than 2 µM and the IC50 (CAPAN-1) was greater than 2 µM. The IC50 (UACC-893) was greater than 2 µM, the IC50 (SK-OV-3) was 0.224 µM and the IC50 (UMC-11) was 1.12 µM. It also gave an IC50 (NB12) of 1.31 µM, an IC50 (NCI-H1793) greater than 2 µM and an IC50 (HCC1569) greater than 2 µM. It also gave an IC50 (SiHa) greater than 2 µM, an IC50 (SCC-4) of 1.36 µM and an IC50 (SW1990) of 1.38 µM. The IC50 (MFE-280) was greater than 2 µM, the IC50 (HCT-15) was 0.566 µM and the IC50 (BFTC-905) was 0.25 µM. It also gave an IC50 (MDA-MB-415) greater than 2 µM, an IC50 (NCI-H2170) greater than 2 µM and an IC50 (SW1088) of 0.874 µM. The IC50 (SF-295) was 0.428 µM, the IC50 (D-392MG) was 0.593 µM and the IC50 (639-V) was 0.689 µM. The IC50 (VMRC-RCZ) was 0.0829 µM, the IC50 (D-247MG) was 0.528 µM and the IC50 (HSC-2) was 1.5 µM. For the same compound, the IC50 (HO-1-N-1) was 0.298 µM, the IC50 (NCI-H1623) was 1.65 µM and the IC50 (G-401) was 0.439 µM. The IC50 (SCC-9) was 1.21 µM, the IC50 (ACHN) was 0.104 µM and the IC50 (CaR-1) was 0.147 µM. The IC50 (SW948) was greater than 2 µM, the IC50 (Capan-2) was greater than 2 µM and the IC50 (DoTc2-4510) was greater than 2 µM. For the same compound, the IC50 (U-118-MG) was greater than 2 µM, the IC50 (SK-N-AS) was 0.145 µM and the IC50 (NCI-H358) was greater than 2 µM. For the same compound, the IC50 (Calu-3) was greater than 2 µM, the IC50 (BT-20) was 1.65 µM and the IC50 (NY) was greater than 2 µM. For the same compound, the IC50 (23132-87) was 0.838 µM, the IC50 (NCI-H596) was greater than 2 µM and the IC50 5637 was 0.0821 µM. The IC50 (SW13) was 0.617 µM, the IC50 (NCI-H28) was 0.833 µM and the IC50 (769-P) was 1.61 µM. For the same compound, the IC50 (HT-1376) was greater than 2 µM.
Work on `C[C@]1(c2nc3c(C(N)=O)cccc3[nH]2)CCCN1` [VELIPARIB] yielded an IC50 (SK-MEL-30) greater than 5 µM, an IC50 (A2058) greater than 5 µM and an IC50 (MDA-MB-361) greater than 5 µM. The IC50 (NCI-H630) was greater than 5 µM, the IC50 (FaDu) was greater than 5 µM and the IC50 (HSC-3) was greater than 5 µM. For the same compound, the IC50 (8305C) was greater than 5 µM, the IC50 (SW1783) was greater than 5 µM and the IC50 (SN12C) was greater than 5 µM. It also gave an IC50 (BEN) greater than 5 µM, an IC50 (COLO-680N) greater than 5 µM and an IC50 (CAPAN-1) greater than 5 µM. The IC50 (UACC-893) was greater than 5 µM, the IC50 (SK-OV-3) was greater than 5 µM and the IC50 (UMC-11) was greater than 5 µM. For the same compound, the IC50 (NB12) was greater than 5 µM, the IC50 (NCI-H1793) was greater than 5 µM and the IC50 (HCC1569) was greater than 5 µM. For the same compound, the IC50 (SiHa) was greater than 5 µM, the IC50 (SCC-4) was greater than 5 µM and the IC50 (SW1990) was greater than 5 µM. The IC50 (MFE-280) was greater than 5 µM, the IC50 (HCT-15) was greater than 5 µM and the IC50 (BFTC-905) was greater than 5 µM. The IC50 (MDA-MB-415) was greater than 5 µM, the IC50 (NCI-H2170) was greater than 5 µM and the IC50 (SW1088) was greater than 5 µM. For the same compound, the IC50 (SF-295) was greater than 5 µM, the IC50 (D-392MG) was greater than 5 µM and the IC50 (639-V) was greater than 5 µM. For the same compound, the IC50 (VMRC-RCZ) was greater than 5 µM, the IC50 (D-247MG) was greater than 5 µM and the IC50 (HSC-2) was greater than 5 µM. For the same compound, the IC50 (HO-1-N-1) was greater than 5 µM, the IC50 (NCI-H1623) was greater than 5 µM and the IC50 (G-401) was greater than 5 µM. The IC50 (SCC-9) was greater than 5 µM, the IC50 (ACHN) was greater than 5 µM and the IC50 (CaR-1) was greater than 5 µM. It also gave an IC50 (SW948) greater than 5 µM, an IC50 (Capan-2) greater than 5 µM and an IC50 (DoTc2-4510) greater than 5 µM. The IC50 (U-118-MG) was greater than 5 µM, the IC50 (SK-N-AS) was greater than 5 µM and the IC50 (NCI-H358) was greater than 5 µM. The IC50 (Calu-3) was greater than 5 µM, the IC50 (BT-20) was greater than 5 µM and the IC50 (NY) was greater than 5 µM. For the same compound, the IC50 (23132-87) was greater than 5 µM, the IC50 (NCI-H596) was greater than 5 µM and the IC50 5637 was greater than 5 µM. For the same compound, the IC50 (SW13) was greater than 5 µM, the IC50 (NCI-H28) was greater than 5 µM and the IC50 (769-P) was greater than 5 µM. The IC50 (HT-1376) was greater than 5 µM.
`CC[C@]1(O)C[C@@H]2CN(CCc3c([nH]c4ccccc34)[C@@](C(=O)OC)(c3cc4c(cc3OC)N(C)[C@H]3[C@@](O)(C(=O)OC)[C@H](OC(C)=O)[C@]5(CC)C=CCN6CC[C@]43[C@@H]65)C2)C1` [VINBLASTINE] was tested, and the IC50 (SK-MEL-30) was greater than 0.1 µM, the IC50 (A2058) was 0.00122 µM and the IC50 (MDA-MB-361) was 0.00166 µM. For the same compound, the IC50 (NCI-H630) was greater than 0.1 µM, the IC50 (FaDu) was 0.02 µM and the IC50 (HSC-3) was 0.00439 µM. For the same compound, the IC50 (8305C) was 0.00367 µM, the IC50 (SW1783) was 0.0855 µM and the IC50 (SN12C) was 0.0161 µM. It also gave an IC50 (BEN) of 0.0812 µM, an IC50 (COLO-680N) of 0.0747 µM and an IC50 (CAPAN-1) of 0.0523 µM. For the same compound, the IC50 (UACC-893) was 0.0983 µM, the IC50 (SK-OV-3) was greater than 0.1 µM and the IC50 (UMC-11) was 0.0762 µM. For the same compound, the IC50 (NB12) was 0.0614 µM, the IC50 (NCI-H1793) was 0.0296 µM and the IC50 (HCC1569) was 0.0923 µM. The IC50 (SiHa) was greater than 0.1 µM, the IC50 (SCC-4) was 0.00239 µM and the IC50 (SW1990) was 0.0614 µM. It also gave an IC50 (MFE-280) of 0.0361 µM, an IC50 (HCT-15) of 0.0786 µM and an IC50 (BFTC-905) of 0.00377 µM. The IC50 (MDA-MB-415) was 0.0185 µM, the IC50 (NCI-H2170) was 0.0334 µM and the IC50 (SW1088) was 0.017 µM. For the same compound, the IC50 (SF-295) was 0.0363 µM, the IC50 (D-392MG) was 0.0189 µM and the IC50 (639-V) was 0.00561 µM. The IC50 (VMRC-RCZ) was 0.0193 µM, the IC50 (D-247MG) was 0.00698 µM and the IC50 (HSC-2) was 0.0202 µM. It also gave an IC50 (HO-1-N-1) of 0.00176 µM, an IC50 (NCI-H1623) greater than 0.1 µM and an IC50 (G-401) of 0.00867 µM. For the same compound, the IC50 (SCC-9) was 0.0107 µM, the IC50 (ACHN) was 0.059 µM and the IC50 (CaR-1) was 0.0457 µM. It also gave an IC50 (SW948) of 0.076 µM, an IC50 (Capan-2) greater than 0.1 µM and an IC50 (DoTc2-4510) of 0.0165 µM. For the same compound, the IC50 (U-118-MG) was 0.0452 µM, the IC50 (SK-N-AS) was 0.00867 µM and the IC50 (NCI-H358) was 0.037 µM. The IC50 (Calu-3) was greater than 0.1 µM, the IC50 (BT-20) was 0.0377 µM and the IC50 (NY) was greater than 0.1 µM. For the same compound, the IC50 (23132-87) was 0.0206 µM, the IC50 (NCI-H596) was greater than 0.1 µM and the IC50 5637 was 0.000951 µM. For the same compound, the IC50 (SW13) was 0.00549 µM, the IC50 (NCI-H28) was 0.0343 µM and the IC50 (769-P) was 0.0256 µM. For the same compound, the IC50 (HT-1376) was 0.0604 µM.
